Laboratory results as given in PubChem BioAssay AID248 (DTP/NCI, 2004).
Where “and” joins values, the source holds several entries; their conditions need not be identical. Equal entries are not always repeated. Inconclusive results and toxic doses are left out. Rule as the data show it: active = T/C of 150% or more; inactive = T/C below 125%.

Test system: L1210 leukemia ip in BDF1 mice, survival T/C
Assay: NCI In Vivo Anticancer Drug Screen. Data for tumor model L1210 Leukemia (intraperitoneal) in B6D2F1 (BDF1) mice
Details: endpoint: mean survival time, higher = longer survival
How it was run: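 In this screen, tumor-bearing mice given compound are compared to those given vehicle, and their survival values are reported as a treated-to-control quotient.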

[1] = dose: 100.0 mg/kg/injection, schedule: Q04DX003 (ip), vehicle: Klucel (hydroxypropylcellulose) (HPC)
[2] = dose: 200.0 mg/kg/injection, schedule: Q04DX003 (ip), vehicle: Klucel (hydroxypropylcellulose) (HPC)
[3] = dose: 100.0 mg/kg/injection, schedule: Q01DX009 (ip), vehicle: Klucel (hydroxypropylcellulose) (HPC)
[4] = dose: 200.0 mg/kg/injection, schedule: Q01DX009 (ip), vehicle: Klucel (hydroxypropylcellulose) (HPC)
[5] = dose: 400.0 mg/kg/injection, schedule: Q01DX009 (ip), vehicle: Klucel (hydroxypropylcellulose) (HPC)
[6] = dose: 400.0 mg/kg/injection, schedule: Q04DX003 (ip), vehicle: Klucel (hydroxypropylcellulose) (HPC)
[7] = dose: 100.0 mg/kg/injection, schedule: Q01DX001 (ip), vehicle: Klucel (hydroxypropylcellulose) (HPC)
[8] = dose: 200.0 mg/kg/injection, schedule: Q01DX001 (ip), vehicle: Klucel (hydroxypropylcellulose) (HPC)
[9] = dose: 400.0 mg/kg/injection, schedule: Q01DX001 (ip), vehicle: Klucel (hydroxypropylcellulose) (HPC)
[10] = dose: 100.0 mg/kg/injection, schedule: Q04DX002 (ip), vehicle: Klucel (hydroxypropylcellulose) (HPC)
[11] = dose: 200.0 mg/kg/injection, schedule: Q04DX002 (ip), vehicle: Klucel (hydroxypropylcellulose) (HPC)
[12] = dose: 400.0 mg/kg/injection, schedule: Q04DX002 (ip), vehicle: Klucel (hydroxypropylcellulose) (HPC)
[13] = dose: 100.0 mg/kg/injection, schedule: Q04DX003 (ip), vehicle: saline with Tween-80
[14] = dose: 200.0 mg/kg/injection, schedule: Q04DX003 (ip), vehicle: saline with Tween-80
[15] = dose: 400.0 mg/kg/injection, schedule: Q04DX003 (ip), vehicle: saline with Tween-80

Measured: T/C

OCC1OC(n2ccc3ccc(F)cc32)C(O)C1O (stereo not given)
inactive: dose: 60.0 mg/kg/injection, schedule: Q01DX001 (ip), vehicle: saline 97 % of control | dose: 120.0 mg/kg/injection, schedule: Q01DX001 (ip), vehicle: saline 108 % of control

CC1(C)CN(C(C)(C)C)CC(C)(C)C(O)C1=O (stereo not given)
inactive: dose: 100.0 mg/kg/injection, schedule: Q01DX001 (ip), vehicle: saline with Tween-80 96 % of control | dose: 200.0 mg/kg/injection, schedule: Q01DX001 (ip), vehicle: saline with Tween-80 91 % of control | dose: 400.0 mg/kg/injection, schedule: Q01DX001 (ip), vehicle: saline with Tween-80 93 % of control

O=S(c1ccccc1)c1c(Cl)c(Cl)nc(Cl)c1Cl (stereo not given)
inactive: dose: 6.25 mg/kg/injection, schedule: Q01DX009 (ip), vehicle: Klucel (hydroxypropylcellulose) (HPC) 104 % of control | dose: 12.5 mg/kg/injection, schedule: Q01DX009 (ip), vehicle: Klucel (hydroxypropylcellulose) (HPC) 106 % of control | dose: 25.0 mg/kg/injection, schedule: Q01DX009 (ip), vehicle: Klucel (hydroxypropylcellulose) (HPC) 104 % of control | [1] 105 % of control | [2] 90 % of control

Cc1cc(OC(=O)Nc2ccccc2Cl)ccc1[N+](=O)[O-]
inactive: [3] 107 % of control | [1] 100 % of control | [4] 104 % of control | [2] 89 % of control | [5] 98 % of control | [6] 102 % of control

COc1ccc(C2=CN(S(=O)(=O)c3ccc(C)cc3)CCc3ccccc32)cc1
inactive: [1] 96 % of control | [2] 102 % of control | [6] 92 % of control

Cn1cnc([N+](=O)[O-])c1Sc1nc(N)nc2c1ncn2C1OC(CO)C(O)C1O (stereo not given)
inactive: dose: 0.94 mg/kg/injection, schedule: Q01DX Z (ip), vehicle: methylcellulose (MC) 121 % of control | dose: 1.88 mg/kg/injection, schedule: Q01DX Z (ip), vehicle: methylcellulose (MC) 121 % of control | dose: 3.75 mg/kg/injection, schedule: Q01DX Z (ip), vehicle: methylcellulose (MC) 116 % of control | dose: 7.5 mg/kg/injection, schedule: Q01DX Z (ip), vehicle: methylcellulose (MC) 116 % of control | dose: 15.0 mg/kg/injection, schedule: Q01DX Z (ip), vehicle: methylcellulose (MC) 103 % of control

CC(C)NC(=O)N(c1ccccc1)c1ccccc1
inactive: dose: 100.0 mg/kg/injection, schedule: Q01DX009 (ip), vehicle: gum acacia 104 % of control | dose: 100.0 mg/kg/injection, schedule: Q04DX003 (ip), vehicle: gum acacia 97 % of control | dose: 200.0 mg/kg/injection, schedule: Q01DX009 (ip), vehicle: gum acacia 111 % of control | dose: 200.0 mg/kg/injection, schedule: Q04DX003 (ip), vehicle: gum acacia 100 % of control | dose: 400.0 mg/kg/injection, schedule: Q01DX009 (ip), vehicle: gum acacia 101 % of control | dose: 400.0 mg/kg/injection, schedule: Q04DX003 (ip), vehicle: gum acacia 99 % of control

CC(C)(C(=O)[O-])C(=O)O.[Co+3].[NH2-].[NH2-].[NH2-].[NH2-].[NH2-].[O-][Cl+3]([O-])([O-])O
inactive: dose: 100.0 mg/kg/injection, schedule: Q04DX002 (ip), vehicle: saline 92 % of control | dose: 200.0 mg/kg/injection, schedule: Q04DX002 (ip), vehicle: saline 95 % of control | dose: 400.0 mg/kg/injection, schedule: Q04DX002 (ip), vehicle: saline 106 % of control

Cc1ccc(S(=O)(=O)OCC2C3CCC4C3C(C)(C)CCCC24C)cc1 (stereo not given)
inactive: [7] 107 % of control | [8] 95 % of control | [9] 90 % of control

O=C(Nc1ccc(F)cc1)Oc1ccccn1
inactive: [7] 101 % of control | [3] 95 % of control | [10] 94 % of control and 100 % of control | [1] 101 % of control | [8] 104 % of control | [4] 101 % of control and 87 % of control | [11] 94 % of control and 97 % of control | [2] 103 % of control | [9] 93 % of control | [5] 95 % of control and 96 % of control | [12] 94 % of control and 97 % of control | [6] 105 % of control

O=[N+]([O-])c1cccc(SNc2cccc(Cl)c2)c1
inactive: dose: 100.0 mg/kg/injection, schedule: Q01DX009 (ip), vehicle: saline with Tween-80 98 % of control | [13] 93 % of control | [14] 95 % of control | [15] 90 % of control

Cn1cc([N+](=O)[O-])cnc1=O
inactive: [1] 100 % of control | [2] 102 % of control | [6] 102 % of control

CCCCCCCCCCCCCCCC(=O)N(CC)CC
inactive: dose: 100.0 mg/kg/injection, schedule: Q01DX001 (ip), vehicle: carboxymethylcellulose (CMC) 104 % of control | dose: 100.0 mg/kg/injection, schedule: Q01DX009 (ip), vehicle: carboxymethylcellulose (CMC) 98 % of control and 104 % of control | dose: 100.0 mg/kg/injection, schedule: Q04DX003 (ip), vehicle: carboxymethylcellulose (CMC) 96 % of control | dose: 200.0 mg/kg/injection, schedule: Q01DX001 (ip), vehicle: carboxymethylcellulose (CMC) 96 % of control | dose: 200.0 mg/kg/injection, schedule: Q01DX009 (ip), vehicle: carboxymethylcellulose (CMC) 96 % of control and 102 % of control | dose: 200.0 mg/kg/injection, schedule: Q04DX003 (ip), vehicle: carboxymethylcellulose (CMC) 92 % of control | dose: 400.0 mg/kg/injection, schedule: Q01DX001 (ip), vehicle: carboxymethylcellulose (CMC) 95 % of control | dose: 400.0 mg/kg/injection, schedule: Q01DX009 (ip), vehicle: carboxymethylcellulose (CMC) 96 % of control and 89 % of control | dose: 400.0 mg/kg/injection, schedule: Q04DX003 (ip), vehicle: carboxymethylcellulose (CMC) 94 % of control

CC1=C(C(=O)O)CCCO1
inactive: dose: 100.0 mg/kg/injection, schedule: Q01DX001 (ip), vehicle: saline 98 % of control | dose: 200.0 mg/kg/injection, schedule: Q01DX001 (ip), vehicle: saline 98 % of control | dose: 400.0 mg/kg/injection, schedule: Q01DX001 (ip), vehicle: saline 98 % of control

CC(=O)n1cc(C=C2C(=O)CC(C)(C)CC2=O)c2ccccc21
inactive: dose: 37.5 mg/kg/injection, schedule: Q01DX009 (ip), vehicle: Klucel (hydroxypropylcellulose) (HPC) 89 % of control | dose: 75.0 mg/kg/injection, schedule: Q01DX009 (ip), vehicle: Klucel (hydroxypropylcellulose) (HPC) 95 % of control | dose: 150.0 mg/kg/injection, schedule: Q01DX009 (ip), vehicle: Klucel (hydroxypropylcellulose) (HPC) 98 % of control

COC1=NS(=O)(=O)C(C)C(C)(C)O1 (stereo not given)
inactive: [10] 100 % of control | [11] 120 % of control | [12] 100 % of control

CNC(=O)Oc1cc2ccccc2cc1C(=O)Nc1ccccc1
inactive: [10] 97 % of control | [11] 100 % of control | [12] 113 % of control

CC(=O)C(Cc1ccc(CC(C(C)=O)C(C)=O)cc1)C(C)=O
inactive: [13] 100 % of control | [14] 91 % of control | [15] 100 % of control

Clc1ccccc1C=NC1CCCCC1
inactive: dose: 100.0 mg/kg/injection, schedule: Q04DX002 (ip), vehicle: saline with Tween-80 96 % of control | dose: 200.0 mg/kg/injection, schedule: Q04DX002 (ip), vehicle: saline with Tween-80 96 % of control | dose: 400.0 mg/kg/injection, schedule: Q04DX002 (ip), vehicle: saline with Tween-80 93 % of control

NC(N)=N/N=C1\CCCC\C1=N/N=C(N)N
inactive: dose: 15.0 mg/kg/injection, schedule: Q01DX Z (ip), vehicle: carboxymethylcellulose (CMC) 97 % of control | dose: 30.0 mg/kg/injection, schedule: Q01DX Z (ip), vehicle: carboxymethylcellulose (CMC) 95 % of control | dose: 60.0 mg/kg/injection, schedule: Q01DX Z (ip), vehicle: carboxymethylcellulose (CMC) 91 % of control | dose: 60.0 mg/kg/injection, schedule: Q01DX Z (oral), vehicle: carboxymethylcellulose (CMC) 96 % of control | dose: 120.0 mg/kg/injection, schedule: Q01DX Z (ip), vehicle: carboxymethylcellulose (CMC) 102 % of control | dose: 120.0 mg/kg/injection, schedule: Q01DX Z (oral), vehicle: carboxymethylcellulose (CMC) 93 % of control | dose: 240.0 mg/kg/injection, schedule: Q01DX Z (oral), vehicle: carboxymethylcellulose (CMC) 88 % of control | dose: 480.0 mg/kg/injection, schedule: Q01DX Z (oral), vehicle: carboxymethylcellulose (CMC) 98 % of control
